These are literature values, as cited in EP0268926A2, “Safened sorptive granular pesticidal resin compositions for controlling soil borne pests and process for the preparation thereof” (priority 1986, dated 1988).

The data set deals with rats. As to conditions: technical pesticide.

Consider `CCOP(=S)(OCC)SCSCC` [phorate, O,O-diethyl-S-(ethylthiomethyl)phosphorodithioate], for which the “acute oral LD50 value in rats” value is on record as 1.6-3.7 mg technical/kg.
